Data: US20170150719A1, “FUNGICIDAL PYRAZOLES AND THEIR MIXTURES” (E I DU PONT DE NEMOURS AND COMPANY, priority 2010, published 2017)

Experiments:
[1] = tested on: Puccinia recondita f. sp. tritici; assay: Test G: wheat leaf rust, spray after inoculation (curative) on wheat seedlings, visual disease rating; assay type: in vivo; conditions: 100 = 100% disease control; for Test G rating (% disease control): spray after inoculation, rating without asterisk; for pest or weed control at 200 µg/mL: sprayed after inoculation, 0 = no disease control
Text: (§1) A hyphen (-) indicates no test results.

Septoria nodorum = assay: Test E: Septoria glume blotch, preventive spray on wheat seedlings, visual disease rating; conditions: 100 = 100% disease control; for Test E rating (% disease control): Septoria glume blotch on wheat, preventive spray, rating without asterisk; for pest or weed control at 200 µg/mL: Parastagonospora nodorum, in Triticum aestivum, read-out: Test E rating (disease control), Septoria glume blotch, 0 = no disease control relative to the controls
Method: General protocol for preparing test suspensions for Tests A-I: the test compounds were first dissolved in acetone in an amount equal to 3% of the final volume and then suspended at the desired concentration (in ppm) in acetone and purified water (50/50 mix by volume) containing 250 ppm of the surfactant Trem® 014 (polyhydric alcohol esters). The resulting test suspensions were then used in Tests A-I. Each test was conducted in triplicate, and the results were averaged. Spraying a 200 ppm test suspension to the point of run-off on the test plants was the equivalent of a rate of about 800 g/ha. Unless otherwise indicated, the rating values indicate a 200 ppm test suspension was used. (An asterisk “*” next to the rating value indicates a 40 ppm test suspension was used.)
The test suspension was sprayed to the point of run-off on wheat seedlings. The following day the seedlings were inoculated with a spore suspension of Septoria nodorum (the causal agent of Septoria glume blotch) and incubated in a saturated atmosphere at 24° C. for 48 h, and then moved to a growth chamber at 20° C. for 9 days, after which time visual disease ratings were made.

Botrytis cinerea = assay: Test A: tomato Botrytis, preventive spray on tomato seedlings, visual disease rating; conditions: 100 = 100% disease control; for Test A rating (% disease control): tomato Botrytis, preventive spray, 0 = no control relative to controls, rating without asterisk
[2] = tested on: Blumeria graminis f. sp. tritici; assay: Test I: wheat powdery mildew, preventive spray on wheat seedlings, visual disease rating; conditions: 100 = 100% disease control; for Test I rating (% disease control): wheat powdery mildew, preventive spray, rating without asterisk; for pest or weed control at 200 µg/mL: Blumeria graminis, in Triticum aestivum, read-out: Test I rating (disease control), wheat powdery mildew, 0 = no disease control relative to the controls
[3] = tested on: Puccinia recondita f. sp. tritici; assay: Test H: wheat leaf rust, preventive spray on wheat seedlings, visual disease rating; conditions: 100 = 100% disease control; for Test H rating (% disease control): wheat leaf rust, preventive spray, rating without asterisk; for pest or weed control at 200 µg/mL: read-out: Test H rating (disease control), wheat leaf rust, sprayed the day before inoculation, 0 = no disease control
Alternaria solani = assay: Test B: tomato early blight, preventive spray on tomato seedlings, visual disease rating; conditions: for Test B rating (% disease control): tomato early blight, preventive spray, 100 = 100% disease control, rating without asterisk; for pest or weed control at 200 µg/mL: Alternaria solani, in Solanum lycopersicum, read-out: Test B rating (disease control)
Phytophthora infestans = assay: whole plant or invertebrate; assay type: in vivo; conditions: for Test C rating (% disease control): tomato late blight, preventive spray, 100 = 100% disease control, rating without asterisk; for pest or weed control at 200 µg/mL: Phytophthora infestans, in Solanum lycopersicum, read-out: Test C rating (disease control)
Septoria tritici [4] = assay: Test F: wheat leaf blotch, preventive spray on wheat seedlings, visual disease rating; assay type: in vivo; conditions: Zymoseptoria tritici, 100 = 100% disease control, 0 = no disease control relative to the controls
Text: as §1

[5] = tested on: Puccinia recondita f sp. tritici; assay: Test L (L1-L5): wheat leaf rust, Compound 81 alone and in mixtures, observed and Colby expected control; assay type: in vivo; conditions: for Test L5 Obsd, disease control rating: wheat leaf rust
[6] = tested on: Blumeria graminis f. sp. tritici; assay: Test K (K1-K5): wheat powdery mildew, Compound 81 alone and in mixtures, observed and Colby expected control; assay type: in vivo; conditions: for Test K5 Obsd, disease control rating: wheat powdery mildew
Septoria tritici [7] = assay: Test M (M1-M5): wheat leaf blotch, Compound 81 alone and in mixtures, observed and Colby expected control; assay type: in vivo

## CCOc1ccc(-c2c(C)nn(C)c2Nc2c(F)cc(Cl)cc2Cl)c(F)c1 [compound 190]
[1]
  Test G rating (% disease control): 9%
Septoria nodorum
  Test E rating (% disease control): 0%
Botrytis cinerea
  Test A rating (% disease control): 100%
[2]
  Test I rating (% disease control): 95%
[3]
  Test H rating (% disease control): 96%
Alternaria solani
  Test B rating (% disease control): 82%
Phytophthora infestans
  Test C rating (% disease control): 0%

## Cc1nn(C)c(Nc2c(F)cc(F)cc2Br)c1-c1ccc(F)cc1F [Compound 143, N-(2-bromo-4,6-difluorophenyl)-4-(2,4-difluorophenyl)-1,3-dimethyl-1H-pyrazol-5-amine]
[1]
  pest or weed control at 200 µg/mL: 100%
Septoria nodorum
  pest or weed control at 200 µg/mL: 100%
Septoria tritici [4]
  pest or weed control at 200 µg/mL: 100%
Botrytis cinerea; Botrytis cinerea, in Solanum lycopersicum, read-out: Test A rating (disease control), tomato Botrytis, 0 = no disease control relative to the controls
  pest or weed control at 200 µg/mL: 100%
[2]
  pest or weed control at 200 µg/mL: 100%
[3]
  pest or weed control at 200 µg/mL: 100%
Alternaria solani
  pest or weed control at 200 µg/mL: 100%
Phytophthora infestans
  pest or weed control at 200 µg/mL: 0%

## Cc1nn(C)c(Nc2c(F)cc(F)cc2Br)c1-c1ccc(F)cc1Br [Compound 195, N-(2-bromo-4,6-difluorophenyl)-4-(2-bromo-4-fluorophenyl)-1,3-dimethyl-1H-pyrazol-5-amine]
[1]
  Test G rating (% disease control): 89%
Septoria nodorum
  Test E rating (% disease control): 99%
Alternaria solani
  Test B rating (% disease control): 100%
Phytophthora infestans
  Test C rating (% disease control): 0%

## Cn1cc(C(=O)Nc2ccc(F)cc2-c2ccc(Cl)c(Cl)c2)c(C(F)F)n1 [bixafen]
[5]; component (b) 0.08 ppm alone
  Test L3 Obsd: 9%
[5]; component (b) 0.4 ppm alone
  Test L3 Obsd: 88%
[5]; component (b) 2 ppm alone
  Test L3 Obsd: 99%
[5]; component (b) 10 ppm alone
  Test L3 Obsd: 100%
[6]; component (b) 0.08 ppm alone
  Test K3 Obsd: 0%
[6]; component (b) 0.4 ppm alone
  Test K3 Obsd: 0%
[6]; component (b) 2 ppm alone
  Test K3 Obsd: 64%
[6]; component (b) 10 ppm alone
  Test K3 Obsd: 99%
Septoria tritici [7]; component (b) 0.08 ppm alone
  Test M2 Obsd, disease control rating: 0%
Septoria tritici [7]; component (b) 0.4 ppm alone
  Test M2 Obsd, disease control rating: 33%
Septoria tritici [7]; component (b) 2 ppm alone
  Test M2 Obsd, disease control rating: 89%

## Cc1nn(C)c(Nc2c(F)cccc2Cl)c1-c1ccc(F)cc1F [Compound 275, N-(2-chloro-6-fluorophenyl)-4-(2,4-difluorophenyl)-1,3-dimethyl-1H-pyrazol-5-amine]
[1]
  Test G rating (% disease control): 9%
Septoria nodorum
  Test E rating (% disease control): 60%
Alternaria solani
  Test B rating (% disease control): 99%
Phytophthora infestans
  Test C rating (% disease control): 0%

## Fc1ccc(Oc2ccnc3cc(Cl)cc(Cl)c23)cc1 [quinoxyfen]
[5]; component (b) 10 ppm alone
  Test L1 Obsd: 0%
[5]; component (b) 40 ppm alone
  Test L1 Obsd: 0%
[5]; component (b) 200 ppm alone
  Test L1 Obsd: 0%
[6]; component (b) 0.016 ppm alone
  Test K5 Obsd, disease control rating: 21%
[6]; component (b) 0.08 ppm alone
  Test K5 Obsd, disease control rating: 29%
[6]; component (b) 0.4 ppm alone
  Test K5 Obsd, disease control rating: 64%
[6]; component (b) 2 ppm alone
  Test K5 Obsd, disease control rating: 93%
Septoria tritici [7]; component (b) alone 10 ppm
  Test M5 Obsd disease control rating: 0%
Septoria tritici [7]; component (b) alone 40 ppm
  Test M5 Obsd disease control rating: 0%
Septoria tritici [7]; component (b) alone 200 ppm
  Test M5 Obsd disease control rating: 8%

## CCOc1ccc(-c2c(C)nn(C)c2Nc2c(F)cc(F)cc2Cl)c(F)c1 [compound 188]
[1]
  Test G rating (% disease control): 0%
Septoria nodorum
  Test E rating (% disease control): 92%
Botrytis cinerea
  Test A rating (% disease control): 100%
[2]
  Test I rating (% disease control): 98%
[3]
  Test H rating (% disease control): 98%
Alternaria solani
  Test B rating (% disease control): 99%
Phytophthora infestans
  Test C rating (% disease control): 0%

## CC(C1CC1)C(O)(Cn1cncn1)c1ccc(Cl)cc1 (stereo not shown) [cyproconazole]
[5]; component (b) 0.016 ppm alone
  Test L5 Obsd, disease control rating: 27%
[5]; component (b) 0.08 ppm alone
  Test L5 Obsd, disease control rating: 80%
[5]; component (b) 0.4 ppm alone
  Test L5 Obsd, disease control rating: 92%
[5]; component (b) 2 ppm alone
  Test L5 Obsd, disease control rating: 100%
[6]; component (b) 0.016 ppm alone
  Test K5 Obsd, disease control rating: 64%
[6]; component (b) 0.08 ppm alone
  Test K5 Obsd, disease control rating: 64%
[6]; component (b) 0.4 ppm alone
  Test K5 Obsd, disease control rating: 79%
[6]; component (b) 2 ppm alone
  Test K5 Obsd, disease control rating: 96%
Septoria tritici [7]; component (b) 0.4 ppm alone
  Test M2 Obsd, disease control rating: 0%
Septoria tritici [7]; component (b) 2 ppm alone
  Test M2 Obsd, disease control rating: 0%
Septoria tritici [7]; component (b) 10 ppm alone
  Test M2 Obsd, disease control rating: 0%
Septoria tritici [7]; component (b) 40 ppm alone
  Test M2 Obsd, disease control rating: 98%

## Cc1nn(C)c(Nc2c(F)cc(F)cc2Br)c1-c1c(F)cccc1F [Compound 146, N-(2-bromo-4,6-difluorophenyl)-4-(2,6-difluorophenyl)-1,3-dimethyl-1H-pyrazol-5-amine]
[1]
  pest or weed control at 200 µg/mL: 74%
Septoria nodorum
  pest or weed control at 200 µg/mL: 100%
Septoria tritici [4]
  pest or weed control at 200 µg/mL: 100%
[2]
  pest or weed control at 200 µg/mL: 100%
[3]
  pest or weed control at 200 µg/mL: 98%
Alternaria solani
  pest or weed control at 200 µg/mL: 100%
Phytophthora infestans
  pest or weed control at 200 µg/mL: 0%
